Experiment: human repetitive patch test (cumulative irritation)
Conditions: undiluted product under semi-occlusive patches daily over twelve-day test period, about 100 μl per patch; SLS value is average of two studies
Procedure: The technique involves application of undiluted test products under semi-occlusive patches daily over a twelve-day test period. Approximately 100 μl of test product is applied to each non-woven cotton pad and secured to the skin with porous, hypoallergenic tape. An undosed patch served as a negative control, while a 1.0% sodium lauryl sulfate (SLS) patch served as the positive control. Each day, patches were removed and test sites professionally graded for irritation prior to re-patching.

In the case of `CCCCCCCCCCCCOS(=O)(=O)[O-].[Na+]` [SLS, sodium lauryl sulfate], the “Cumulative Irritation Score” value is reported as 514.

Source: patent US20060216258A1, “Water-in-silicone emulsion compositions” (priority 2005, published 2006)
